Measured values as given in patent US20130296430A1, “COMPOSITIONS AND METHODS FOR TREATING AUTISM AND AUTISM SPECTRUM DISORDER” (priority 2012, published 2013).

Key:
children with autism [1] = assay: 12-week placebo-controlled study of NAC: Clinical Global Impression (CGI); assay type: in vivo, human
Source text: The Clinical Global Impression (CGI) rating scales are commonly used measures of symptom severity, treatment response and the efficacy of treatments in treatment studies of patients with mental disorders (Guy, W., 1976, ECDEU Assessment Manual for Psychopharmacology, Rockville, Md., U.S. Department of Health, Education, and Welfare). The Clinical Global Impression-Severity scale (CGI-S) is a 7-point scale that requires the clinician to rate the severity of the patient's illness at the time of assessment, relative to the clinician's past experience with patients who have the same diagnosis. Considering total clinical experience, a patient is assessed on severity of mental illness at the time of rating 1=normal, not at all ill; 2=borderline mentally ill; 3=mildly ill; 4=moderately ill; 5=markedly ill; 6=severely ill; or 7=extremely ill.
(§1) A 12-week, double-blind randomized, placebo-controlled study of NAC in children with autism was conducted in the Autism & Developmental Disabilities Clinic in the Division of Child & Adolescent Psychiatry at Stanford University Medical Center. The recruitment period started in March 2009 and ended in September 2010. Subjects with and without mental retardation were included. After obtaining informed consent, subjects were screened and inclusion and exclusion criteria were assessed. No changes in eligibility criteria were applied throughout the study. This investigation was approved by the institutional review board at Stanford University School of Medicine. An investigational new drug application (IND#100905) was filed with the Food and Drug Administration, and the study was registered in National Institutes of Health at ClinicalTrials.gov (identifier number NCT00627705).
(§2) After the screening phase, baseline measures were obtained from subjects continuing to meet inclusion and exclusion criteria. Subjects were then randomized to either placebo or active based on age and gender. As NAC is a nutritional supplement, the quality control is predictably variable and therefore purity is not as stringent as prescription medications. Therefore, in the present study, the stability of the compound was ascertained and the integrity of the active agent was protected by packaging each NAC doses in individual pockets. The active compound and matching placebo were provided by BioAdvantex Pharma, Inc. (Mississauga, Ontario, Canada). […] Subjects randomized to the active drug were initiated at the dose of 900 mg every day for the first 4 weeks, then 900 mg twice daily for 4 weeks and 900 mg three times daily for 4 weeks. (This dose selection was based on previously published studies for other psychiatric conditions (Grant, J. et al., Arch Gen Psychiatry, 66:468-475 (2009); Berk, M. et al., Biol Psychiatry, 64:361-368 (2008); Berk, M. et al., Bio Psychiatry, 64:468-475 (2008)) and the previous experience of our group in studies of children with cystic fibrosis). Alternatively, subjects were initiated at the dose of 900 mg per day, 1,800 mg per day, or 2,700 mg per day of NAC. Alternatively, the subjects were initiated at the dose ranging from 900 mg per day to 2,700 mg per day of NAC.
If a subject could not tolerate a specific dose, s/he would be maintained at the highest tolerated dose. Subjects were evaluated at baseline, week 4, week 8 and week 12. The Aberrant Behavioral Checklist (ABC) (Aman, M. et al., Am J Ment Defic. 89:492-502 (1985)), the Clinical Global Impressions (CGI) (Guy, W., ECDEU Assessment Manual for Psychopharmacology, Rockville, Md., U.S. Department of Health, Education, and Welfare (1976)), and the Dosage Record and Treatment Emergent Symptom Scale (DOTES) (Guy, W., 1976, ECDEU Assessment Manual for Psychopharmacology, Rockville, Md., U.S. Department of Health, Education, and Welfare) were obtained in each visit. […]

children with autism [2] = assay: 12-week placebo-controlled study of NAC: Social Responsiveness Scale (SRS); assay type: in vivo, human
Source text: The Social Responsiveness Scale (SRS) (Constantino, J. et al., J Dev Behav Pediatr, 21:2-11 (2000); Constantino, J. et al., J Autism Dev Disord., 3:427-433 (2003)) is a norm-referenced, 65-item parent report questionnaire developed to measure social behaviors, including social awareness, social information processing, reciprocal social communication, and social anxiety, in both clinical and non-clinical populations. It is designed for use with children ages 4 through 18, and more recently, a special version of the SRS has been developed for preschoolers (Pine, E. et al., Autism, 10:344-352 (2006)). The SRS items measure the Autistic Spectrum Disorder (ASD) symptoms in the domains of social awareness, social information processing, reciprocal social communication, social anxiety/avoidance, and stereotypic behavior/restricted interests. Each item is scored from 1 (not true) to 4 (almost always true). Scores are obtained for five treatment subscales: Social Awareness (e.g., “Is aware of what others are thinking or feeling”), Social Cognition (e.g., “Doesn't recognize when others are trying to take advantage of him or her”), Social Communication (e.g., “Avoids eye contact or has unusual eye contact”), Social Motivation (e.g., “Would rather be alone than with others”), and Autistic Mannerisms (e.g., “Has an unusually narrow range of interests”). The SRS summary score was continuously distributed within each group and minimally correlated with Intelligent Quotient (IQ). High scores indicate more severe behavioral symptoms.
as §1, §2
If a subject could not tolerate a specific dose, s/he would be maintained at the highest tolerated dose. […]

[3] = Noszal et al. 2000; cited from earlier work
[4] = Baseline (before treatment), NAC group n = 15
[5] = standardized mean difference NAC vs placebo at Week 12

In the case of `CC(=O)N[C@@H](CS)C(=O)O` [NAC, N-acetylcysteine], the “CGI severity, Mean (SD)” value (children with autism [1]; [4]) is reported as 5.1 (0.7), the “CGI improvement, Mean (SD)” value (children with autism [1]; Week 12, NAC n = 14) is reported as 2.9 (1.1) and the “CGI severity, Mean (SD)” value (children with autism [1]; Week 12, NAC n = 14, 7-point scale) is reported as 4.5 (0.8). The “CGI-S global severity, pattern NAC vs placebo” value (children with autism [1]; all randomized participants, p=0.170) was “no significant differences”, the “CGI-I improvement, pattern NAC vs placebo” value (children with autism [1]; all randomized participants, p=0.449) was “no significant differences” and the “CGI improvement, Cohen's d” value (children with autism [1]; [5]) was “.30”. The “CGI severity, Cohen's d” value (children with autism [1]; [5]) was “.47”, the “SRS total, Mean (SD)” value (children with autism [2]; [4]) was 111.9 (28.3) and the “SRS total, Mean (SD)” value (children with autism [2]; Week 12, NAC n = 14) was 93.8 (26.7). For the same molecule, the “SRS-Total raw scores, treatment effect” value (children with autism [2]; all randomized participants, NAC vs placebo, p=0.141) was “did not significantly influence”, the “SRS-Social Cognition sub-scale, treatment effect” value (children with autism [2]; all randomized participants, p=0.037, said to appear due to regression to the mean) was “significant improvements” and the “SRS-Autism Mannerisms sub-scale, treatment effect” value (children with autism [2]; all randomized participants, p=0.045) was “significant improvements”. The “any other SRS subscale, treatment effect” value (children with autism [2]; all randomized participants, p>0.100) was “no significant treatment effects”, the “SRS-Total scores, treatment effect” value (children with autism [2]; participants who completed the study (NAC N=13, placebo N=12), p=0.039) was “significantly improved” and the “SRS total, Cohen's d” value (children with autism [2]; [5]) was “.14”. The “half-cell potential of the NAC thiol/disulfide pair” value [3] was “about +63 mV”.
